Test results published in the NIST ThermoML archive (doi:10.1021/je900690d).

Experiment: mean ionic activity coefficient (dimensionless); mn = molality of the nth substance listed, in mol/kg
Settings: 101 kPa, Liquid, Electrochemical Cell

[Cl-].[K+] [potassium chloride] + O
Settings	mean ionic activity coefficient
278.15 K, m1 = 0.0025	0.9474
278.15 K, m1 = 0.0054	0.9254
278.15 K, m1 = 0.0083	0.91
278.15 K, m1 = 0.014	0.8876
278.15 K, m1 = 0.0224	0.8637
278.15 K, m1 = 0.034	0.8398
278.15 K, m1 = 0.051	0.8137
278.15 K, m1 = 0.0752	0.7863
278.15 K, m1 = 0.1147	0.754
278.15 K, m1 = 0.1839	0.7149
278.15 K, m1 = 0.277	0.6787
278.15 K, m1 = 0.3883	0.6474
278.15 K, m1 = 0.5559	0.6129
278.15 K, m1 = 0.7102	0.5888
278.15 K, m1 = 0.8997	0.5653
278.15 K, m1 = 1.063	0.5488
278.15 K, m1 = 1.246	0.5333
278.15 K, m1 = 1.405	0.522
278.15 K, m1 = 1.547	0.5131
288.15 K, m1 = 0.0026	0.946
288.15 K, m1 = 0.005	0.9269
288.15 K, m1 = 0.0077	0.9118
288.15 K, m1 = 0.0129	0.8901
288.15 K, m1 = 0.0183	0.8733
288.15 K, m1 = 0.026	0.8543
288.15 K, m1 = 0.0362	0.8346
288.15 K, m1 = 0.0512	0.8123
288.15 K, m1 = 0.0744	0.7864
288.15 K, m1 = 0.1053	0.7607
288.15 K, m1 = 0.1534	0.7316
288.15 K, m1 = 0.2433	0.6945
288.15 K, m1 = 0.3142	0.6736
288.15 K, m1 = 0.4008	0.6536
288.15 K, m1 = 0.506	0.6346
288.15 K, m1 = 0.6305	0.6167
288.15 K, m1 = 0.7893	0.5987
288.15 K, m1 = 0.9633	0.5828
288.15 K, m1 = 1.142	0.5695
288.15 K, m1 = 1.301	0.5594
288.15 K, m1 = 1.44	0.5515
288.15 K, m1 = 1.567	0.545
298.15 K, m1 = 0.0025	0.9465
298.15 K, m1 = 0.0049	0.9271
298.15 K, m1 = 0.0077	0.9114
298.15 K, m1 = 0.0132	0.8888
298.15 K, m1 = 0.019	0.8713
298.15 K, m1 = 0.0272	0.8519
298.15 K, m1 = 0.0384	0.8318
298.15 K, m1 = 0.0529	0.8116
298.15 K, m1 = 0.0731	0.7899
298.15 K, m1 = 0.1027	0.766
298.15 K, m1 = 0.1458	0.7404
298.15 K, m1 = 0.2002	0.7169
298.15 K, m1 = 0.2643	0.6961
298.15 K, m1 = 0.3687	0.6714
298.15 K, m1 = 0.5383	0.6442
298.15 K, m1 = 0.7187	0.6245
298.15 K, m1 = 0.8905	0.6109
298.15 K, m1 = 1.09	0.599
298.15 K, m1 = 1.24	0.5921
298.15 K, m1 = 1.398	0.5862
308.15 K, m1 = 0.0025	0.9451
308.15 K, m1 = 0.005	0.9256
308.15 K, m1 = 0.0073	0.9123
308.15 K, m1 = 0.0099	0.9007
308.15 K, m1 = 0.0151	0.8818
308.15 K, m1 = 0.0226	0.8616
308.15 K, m1 = 0.0332	0.8402
308.15 K, m1 = 0.0491	0.8165
308.15 K, m1 = 0.075	0.7889
308.15 K, m1 = 0.1006	0.7687
308.15 K, m1 = 0.1313	0.7499
308.15 K, m1 = 0.1962	0.7209
308.15 K, m1 = 0.2752	0.6962
308.15 K, m1 = 0.3636	0.6759
308.15 K, m1 = 0.4739	0.657
308.15 K, m1 = 0.6044	0.6402
308.15 K, m1 = 0.7598	0.6252
308.15 K, m1 = 0.9162	0.6138
308.15 K, m1 = 1.087	0.6044
308.15 K, m1 = 1.251	0.5978
308.15 K, m1 = 1.397	0.5934
308.15 K, m1 = 1.526	0.5906
